The molecules below were run on cotton aphid (Aphis gossypii) (assay: Cotton aphid test in the same manner, more definitive percent mortality at selected rates and exposure times (Table 3)). Conditions: 100 ppm; 72 hours exposure.
Type: in vivo
Experimental: The compounds of formula I useful in the present invention were tested for insecticidal activity by observing mortality in a population of cotton aphid (Aphis gossypii) on treated cotton plants caused by a test compound, when compared to like populations of cotton aphid on untreated plants. These tests were conducted in the following manner:
For each rate of application of test compound, two seven-to-ten days old cotton seedlings (Gossypium hirsutium) grown in 7.6 cm diameter pots were selected for the test. Each test plant was infested with about 120 adult cotton aphids by placing onto each test plant cuttings of leaves from cotton plants grown in a cotton aphid colony. Once infested, the test plants were maintained for up to about 12 hours to allow complete translocation of the aphids onto the test plant. A solution comprising 1000 part per million (ppm) of each test compound was prepared by dissolving 10 milligrams of the test compound in 1 mL of acetone. Each solution was then diluted with 9 mL of a solution of 0.03 mL of polyoxyethylene(10) isooctylphenyl ether in 100 mL of water. About 2.5 mL of solution of each test compound was needed to spray each replicate of test plant (5 mL total for each test compound). If needed, the solution of 1000 ppm of test compound was serially diluted with a solution of 10% acetone and 300 ppm of polyoxyethylene(10) isooctylphenyl ether in water to provide solutions of each test compound for lower rates of application, for example, 300 ppm, 100 ppm, 30 ppm, or 10 ppm. Each replicate of test plant was sprayed with the solutions of test compound until run-off on both the upper and lower surfaces of the leaves. All the test plants were sprayed using a DeVilbus Atomizer Model 152 (Sunrise Medical, Carlsbad, Calif.) at a pressure of about 0.63-0.74 kilogram per square centimeter from a distance of about 30.5 centimeters from the test plants. For comparison purposes, a solution of a standard, such as amitraz or demethylchlordimeform (DCDM), prepared in a manner analogous to that set forth above, as well as a solution of 10% acetone and 300 ppm of polyoxyethylene(10) isooctylphenyl ether in water containing no test compound were also sprayed onto test plants. Upon completion of spraying the solutions of test compound, the solution of standard, and the solution containing no test compound, the plants were allowed to dry. […] After this time, each plant was assessed for percent mortality caused by the test compound when compared to the population of aphids that was infested onto the test plants prior to treatment with test compound. […] If there was 75% mortality or greater of the cotton aphid, a test compound was designated as being more insecticidally active (A).
In a test conducted in the same manner as set forth above, certain compounds of formula I were tested to determine a more definitive percent mortality of cotton aphid.

| SMILES | Percent Mortality of Cotton Aphid on Cotton Plants [%] |
| --- | --- |
| CN1CCC(=C2c3ccccc3Oc3ccc(F)cc32)CC1 [Compound 9] | 26 |
| CCc1ccc2c(c1)C(=C1CCN(C)CC1)c1ccccc1O2 [Compound 12] | 26 |
| CCOC(=O)CCN1CCC(=C2c3ccccc3Oc3ccccc32)CC1 [Compound 20] | 37 |
| CN1CCC(=C2c3ccccc3COc3ccccc32)CC1.Cl [Compound 26] | 84 |
| CN1CCN(C2Cc3cc(Cl)ccc3Sc3cc(Cl)ccc32)CC1 (stereo not shown) [Compound 92] | 48 |
| CN1CCN(C2Cc3ccccc3Sc3c(F)ccc(F)c32)CC1 (stereo not shown) [Compound 97] | 65 |
| COc1ccc2c(c1)Sc1ccccc1CC2N1CCN(C)CC1 (stereo not shown) [Compound 101] | 60 |
| COc1cccc2c1Sc1ccccc1CC2N1CCN(C)CC1 (stereo not shown) [Compound 102] | 33 |
| Cc1cc2c(cc1F)Sc1ccccc1CC2N1CCN(C)CC1 (stereo not shown) [Compound 111] | 94 |
| CN1CCN(C2Cc3ccccc3Sc3cccc(C4CC4)c32)CC1 (stereo not shown) [Compound 112] | 92 |
| CN1CCN(C2Cc3ccccc3Sc3ccc(C4CCCC4)cc32)CC1 (stereo not shown) [Compound 113] | 78 |
| CC(=O)c1ccc2c(c1)C(N1CCN(C)CC1)Cc1ccccc1S2 (stereo not shown) [Compound 115] | 93 |
| CN1CCN(C2Cc3cc(F)ccc3Sc3ccccc32)CC1 (stereo not shown) [Compound 118] | 85 |
| CN1CCN(C2Cc3ccc(F)cc3Sc3ccccc32)CC1 (stereo not shown) [Compound 119] | 85 |
| CSc1ccc2c(c1)C(N1CCN(C)CC1)Cc1cc(F)ccc1S2 (stereo not shown) [Compound 122] | 88 |
| CSc1ccc2c(c1)C(N1CCN(C)CC1)Cc1ccc(F)cc1S2 (stereo not shown) [Compound 123] | 96 |
| CCSc1ccc2c(c1)C(N1CCN(C)CC1)Cc1ccc(F)cc1S2 (stereo not shown) [Compound 124] | 95 |
| CN1CCN(C2Cc3ccc(F)cc3Sc3ccc(C(F)(F)F)cc32)CC1.O=C(O)/C=C\C(=O)O.O=C(O)/C=C\C(=O)O (stereo not shown) [Compound 125] | 90 |
| CC(C)c1ccc2c(c1)C(N1CCN(C)CC1)Cc1ccc(F)cc1S2.O=C(O)/C=C\C(=O)O (stereo not shown) [Compound 128] | 95 |

Same assay, conditions: 100 ppm; 96 hours exposure

| SMILES | Percent Mortality of Cotton Aphid on Cotton Plants [%] |
| --- | --- |
| CC(C)N1CCC(=C2c3ccccc3Sc3ccccc32)CC1 [Compound 3] | 80 |
| CN1CCC(=C2c3ccccc3Oc3c(F)cccc32)CC1 [Compound 11] | 42 |
| CN1CCC(=C2c3ccccc3Oc3ccc(C(F)(F)F)cc32)CC1 [Compound 15] | 28 |

Same assay, conditions: 100 ppm; 168 hours exposure

| SMILES | Percent Mortality of Cotton Aphid on Cotton Plants [%] |
| --- | --- |
| CN1CCN(C2Cc3ccccc3Oc3ccc(Cl)cc32)CC1 (stereo not shown) [Compound 64] | 74 |
| CN1CCN(C2Cc3ccccc3Oc3ccc(Br)cc32)CC1 (stereo not shown) [Compound 65] | 100 |
| CN1CCN(C2Cc3ccccc3Oc3ccc(F)cc32)CC1 (stereo not shown) [Compound 66] | 61 |
| CN1CCN(C2Cc3ccccc3Oc3ccc(I)cc32)CC1 (stereo not shown) [Compound 67] | 75 |
| CN1CCN(C2Cc3ccccc3Oc3ccc(C(F)(F)F)cc32)CC1 (stereo not shown) [Compound 69] | 69 |
| CSc1ccc2c(c1)C(N1CCN(C)CC1)Cc1ccccc1O2 (stereo not shown) [Compound 70] | 57 |
| CN1CCN(C2Cc3ccccc3Oc3ccc(OC(F)(F)F)cc32)CC1 (stereo not shown) [Compound 71] | 100 |
| C[N+]1([O-])CCN(C2Cc3ccccc3Oc3ccc(OC(F)(F)F)cc32)CC1 (stereo not shown) [Compound 72] | 100 |
| CN1CCN(C2Cc3ccccc3Oc3cc(OC(F)(F)F)ccc32)CC1 (stereo not shown) [Compound 73] | 35 |
| CN1CCN(C2Cc3ccccc3Oc3ccc(SC(F)(F)F)cc32)CC1 (stereo not shown) [Compound 75] | 86 |
| CN1CCN(C2Cc3ccccc3Oc3ccc([S+]([O-])C(F)(F)F)cc32)CC1 (stereo not shown) [Compound 76] | 32 |
| CN1CCN(C2Cc3ccccc3Oc3ccc(S(=O)(=O)C(F)(F)F)cc32)CC1 (stereo not shown) [Compound 77] | 37 |
| C=Cc1ccc2c(c1)C(N1CCN(C)CC1)Cc1ccccc1O2 (stereo not shown) [Compound 78] | 53 |
| C#Cc1ccc2c(c1)C(N1CCN(C)CC1)Cc1ccccc1O2 (stereo not shown) [Compound 79] | 35 |
| CN1CCN(C2Cc3ccccc3Oc3cc(Cl)c(Cl)cc32)CC1 (stereo not shown) [Compound 82] | 98 |
| CN1CCN(C2Cc3ccccc3Oc3c(Cl)cc(Cl)cc32)CC1 (stereo not shown) [Compound 83] | 41 |
| CN1CCN(C2Cc3ccccc3Oc3c(F)cc(Br)cc32)CC1 (stereo not shown) [Compound 88] | 35 |
| Cc1cc(Br)cc2c1Oc1ccccc1CC2N1CCN(C)CC1 (stereo not shown) [Compound 89] | 55 |
| CCc1ccc2c(c1)C(N1CCN(C)CC1)Cc1ccccc1S2.O=S(=O)(O)O (stereo not shown) [Compound 98] | 90 |
| C[N+]1([O-])CCN(C2Cc3ccccc3Sc3ccc(OC(F)(F)F)cc32)CC1 (stereo not shown) [Compound 107] | 82 |
| CN1CCN(C2Cc3ccc(F)cc3Sc3ccc(OC(F)(F)F)cc32)CC1 (stereo not shown) [Compound 126] | 100 |
| CN1CCCN(C2Cc3ccccc3Oc3ccc(OC(F)(F)F)cc32)CC1 (stereo not shown) [Compound 186] | 100 |
| CN1CCN(C2=Nc3ccccc3Sc3ccc(OC(F)(F)F)cc32)CC1 [Compound 194] | 51 |

Same assay, conditions: 300 ppm; 72 hours exposure

| SMILES | Percent Mortality of Cotton Aphid on Cotton Plants [%] |
| --- | --- |
| CCN(CC)CCOC1Cc2ccccc2Sc2ccc(OC(F)(F)F)cc21 (stereo not shown) [Compound 52] | 100 |

Same assay, conditions: 300 ppm; 168 hours exposure

| SMILES | Percent Mortality of Cotton Aphid on Cotton Plants [%] |
| --- | --- |
| CN1CCN(C2Cc3ccccc3Sc3c(F)cc(Cl)cc32)CC1.O=S(O)S(=O)(=O)O (stereo not shown) [Compound 96] | 100 |
| CN1CCN(C2Cc3ccccc3Sc3c2ccc(Cl)c3Cl)CC1.O=C(O)/C=C\C(=O)O (stereo not shown) [Compound 110] | 65 |

Same assay, conditions: 1000 ppm; 72 hours exposure

| SMILES | Percent Mortality of Cotton Aphid on Cotton Plants [%] |
| --- | --- |
| CN1CCN(C2Cc3ccccc3Sc3c(F)cccc32)CC1 (stereo not shown) [Compound 94] | 100 |
| CN1CCN(C2Cc3ccccc3Sc3cc(F)c(Cl)cc32)CC1 (stereo not shown) [Compound 95] | 82 |
| CSc1ccc2c(c1)C(N1CCN(C)CC1)Cc1ccccc1S2.O=C(O)/C=C\C(=O)O (stereo not shown) [Compound 103] | 90 |
| CN1CCN(C2Cc3cc(F)ccc3Sc3ccc(Cl)cc32)CC1 (stereo not shown) [Compound 121] | 65 |

Same assay, conditions: 1000 ppm; 96 hours exposure

| SMILES | Percent Mortality of Cotton Aphid on Cotton Plants [%] |
| --- | --- |
| CN1CCN(C2Cc3ccccc3Sc3ccc(C(F)(F)F)cc32)CC1 (stereo not shown) [Compound 105] | 85 |
| CSc1ccc2c(c1)C(N1CCN(Cc3ccncc3)CC1)Cc1ccccc1S2 (stereo not shown) [Compound 173] | 82 |

Same assay, conditions: 1000 ppm; 168 hours exposure

| SMILES | Percent Mortality of Cotton Aphid on Cotton Plants [%] |
| --- | --- |
| CN1CCN(C2Cc3ccccc3Oc3ccc(C#C[Si](C)(C)C)cc32)CC1 (stereo not shown) [Compound 80] | 83 |
| CN1CCN(C2Cc3ccccc3Oc3c(F)cc(Cl)cc32)CC1 (stereo not shown) [Compound 85] | 92 |
| CN1CCN(C2Cc3ccccc3Oc3c(Cl)cc(F)cc32)CC1 (stereo not shown) [Compound 87] | 97 |
| CN1CCN(C2Cc3ccccc3Sc3ccccc32)CC1.O=C(O)/C=C\C(=O)O (stereo not shown) [Compound 90] | 74 |
| CN1CCN(C2Cc3ccc(F)cc3Sc3ccc(OC(F)(F)F)cc32)CC1 (stereo not shown) [Compound 108] | 100 |
| CN1CCN(C2Cc3ccccc3Sc3ccc(OC(F)(F)C(F)F)cc32)CC1 (stereo not shown) [Compound 109] | 100 |
| CC(C)c1ccc2c(c1)C(N1CCN(C)CC1)Cc1ccc(F)cc1S2 (stereo not shown) [Compound 127] | 100 |
| CSc1ccc2c(c1)C(N1CCCN(C)CC1)Cc1ccccc1S2 (stereo not shown) [Compound 183] | 100 |
| CN1CCCN(C2Cc3ccccc3Sc3ccc(OC(F)(F)F)cc32)CC1 (stereo not shown) [Compound 185] | 100 |
| CN1CCN(C2=Nc3ccccc3Sc3ccc(Cl)cc32)CC1 [Compound 189] | 55 |

Source: patent publication US20060111342A1, “Insecticidal tricyclic derivatives” (priority 2002, published 2006)
